Read-outs that look alike come from different tables or passages of the source.
Columns and labels:
[1] = system: COLO 205; set-up: method as in https://dtp.cancer.gov/dtpstandard/dwindex/index.jsp; conditions: reference drugs, ref https://dtp.cancer.gov/dtpstandard/dwindex/index.jsp; cited from earlier work
[2] = system: MDA-MB-231/ATCC; set-up: method as in https://dtp.cancer.gov/dtpstandard/dwindex/index.jsp; conditions: reference drugs, ref https://dtp.cancer.gov/dtpstandard/dwindex/index.jsp; cited from earlier work
[3] = system: HCC-2998; set-up: method as in https://dtp.cancer.gov/dtpstandard/dwindex/index.jsp; conditions: reference drugs, ref https://dtp.cancer.gov/dtpstandard/dwindex/index.jsp; cited from earlier work
[4] = system: K-562; set-up: method as in https://dtp.cancer.gov/dtpstandard/dwindex/index.jsp; conditions: reference drugs, ref https://dtp.cancer.gov/dtpstandard/dwindex/index.jsp; cited from earlier work
[5] = system: NCI-H23; set-up: method as in https://dtp.cancer.gov/dtpstandard/dwindex/index.jsp; conditions: reference drugs, ref https://dtp.cancer.gov/dtpstandard/dwindex/index.jsp; cited from earlier work
[6] = system: NCI/ADR-RES; set-up: method as in https://dtp.cancer.gov/dtpstandard/dwindex/index.jsp; conditions: reference drugs, ref https://dtp.cancer.gov/dtpstandard/dwindex/index.jsp; cited from earlier work
[7] = system: TK-10; set-up: method as in https://dtp.cancer.gov/dtpstandard/dwindex/index.jsp; conditions: reference drugs, ref https://dtp.cancer.gov/dtpstandard/dwindex/index.jsp; cited from earlier work
[8] = system: T-47D; set-up: method as in https://dtp.cancer.gov/dtpstandard/dwindex/index.jsp; conditions: reference drugs, ref https://dtp.cancer.gov/dtpstandard/dwindex/index.jsp; cited from earlier work
[9] = system: MALME-3M; set-up: method as in https://dtp.cancer.gov/dtpstandard/dwindex/index.jsp; conditions: reference drugs, ref https://dtp.cancer.gov/dtpstandard/dwindex/index.jsp; cited from earlier work
[10] = system: IGROV1; set-up: method as in https://dtp.cancer.gov/dtpstandard/dwindex/index.jsp; conditions: reference drugs, ref https://dtp.cancer.gov/dtpstandard/dwindex/index.jsp; cited from earlier work
[11] = system: HOP-92; set-up: method as in https://dtp.cancer.gov/dtpstandard/dwindex/index.jsp; conditions: reference drugs, ref https://dtp.cancer.gov/dtpstandard/dwindex/index.jsp; cited from earlier work
[12] = system: full panel of 59 cancer cell lines; conditions: cited from earlier work; for GI50: read-out: GI50 MG-MID (full panel mean-graph midpoint), reference drugs, ref https://dtp.cancer.gov/dtpstandard/dwindex/index.jsp; for TGI MG-MID (full panel mean-graph midpoint): reference drugs, ref https://dtp.cancer.gov/dtpstandard/dwindex/index.jsp
[13] = system: SK-MEL-5; set-up: method as in https://dtp.cancer.gov/dtpstandard/dwindex/index.jsp; conditions: reference drugs, ref https://dtp.cancer.gov/dtpstandard/dwindex/index.jsp; cited from earlier work
[14] = system: 786-0; set-up: method as in https://dtp.cancer.gov/dtpstandard/dwindex/index.jsp; conditions: reference drugs, ref https://dtp.cancer.gov/dtpstandard/dwindex/index.jsp; cited from earlier work
[15] = system: SNB-75; experiment: NCI antitumor screen (SRB); type: cell-based; conditions: Homo sapiens; for inhibition at 10 µM: one dose 10 µM, read-out: Growth inhibition percentage (GI%)
[16] = system: T-47D; experiment: NCI antitumor screen (SRB); type: cell-based; conditions: Homo sapiens, T47D; for inhibition at 10 µM: one dose 10 µM, read-out: Growth inhibition percentage (GI%)
[17] = system: SNB-19; experiment: NCI antitumor screen (SRB); type: cell-based; conditions: Homo sapiens; for inhibition at 10 µM: one dose 10 µM, read-out: Growth inhibition percentage (GI%)
[18] = system: MCF7; experiment: NCI antitumor screen (SRB); type: cell-based; conditions: Homo sapiens; for inhibition at 10 µM: one dose 10 µM, read-out: Growth inhibition percentage (GI%)
[19] = system: SN12C; experiment: NCI antitumor screen (SRB); type: cell-based; conditions: Homo sapiens; for inhibition at 10 µM: one dose 10 µM, read-out: Growth inhibition percentage (GI%)
[20] = system: BT-549; experiment: NCI antitumor screen (SRB); type: cell-based; conditions: Homo sapiens; for inhibition at 10 µM: one dose 10 µM, read-out: Growth inhibition percentage (GI%)
[21] = system: HT29; experiment: NCI antitumor screen (SRB); type: cell-based; conditions: Homo sapiens; for inhibition at 10 µM: HT-29, one dose 10 µM, read-out: Growth inhibition percentage (GI%)
[22] = system: HCC-2998; experiment: NCI antitumor screen (SRB); type: cell-based; conditions: Homo sapiens; for inhibition at 10 µM: one dose 10 µM, read-out: Growth inhibition percentage (GI%)
[23] = system: OVCAR-3; experiment: NCI antitumor screen (SRB); type: cell-based; conditions: Homo sapiens; for inhibition at 10 µM: one dose 10 µM, read-out: Growth inhibition percentage (GI%)
[24] = system: SW-620; experiment: NCI antitumor screen (SRB); type: cell-based; conditions: Homo sapiens; for inhibition at 10 µM: one dose 10 µM, read-out: Growth inhibition percentage (GI%)
[25] = system: HCT-15; experiment: NCI antitumor screen (SRB); type: cell-based; conditions: Homo sapiens; for inhibition at 10 µM: one dose 10 µM, read-out: Growth inhibition percentage (GI%)
[26] = system: CAKI-1; experiment: NCI antitumor screen (SRB); type: cell-based; conditions: Homo sapiens; for inhibition at 10 µM: one dose 10 µM, read-out: Growth inhibition percentage (GI%)
[27] = system: MDA-MB-435; experiment: NCI antitumor screen (SRB); type: cell-based; conditions: Homo sapiens; for inhibition at 10 µM: one dose 10 µM, read-out: Growth inhibition percentage (GI%)
[28] = system: SF-268; experiment: NCI antitumor screen (SRB); type: cell-based; conditions: Homo sapiens; for inhibition at 10 µM: one dose 10 µM, read-out: Growth inhibition percentage (GI%)
[29] = system: HL60 cells; experiment: Cell cycle analysis (PI, flow cytometry); type: cell-based, human; conditions: HL60, 10.0 µM, 24 h
Experimental: Antitumor agents can induce apoptosis by activating signalling pathways, leading to G2/M phase arrest[73]^,[74]. Flow cytometry is used to measure cell growth in different cell cycle phases (pre-G1, G1, S, and G2/M)[73]^,[74]. […]. We used the solvent DMSO as a negative control. Briefly, we incubated HL60 cells with 10 µM compounds 6, 9, 16, and 20 for 24 h. Compounds 6, 9, 16, and 20 interfered with the normal cell cycle of HL60 cells. […] […].
Cell cycle analysis was carried out similar to our previous report using the Leukaemia HL-60 cell line stained with the DNA fluorochrome PI and analysed by FACSCalibur flow cytometer[40]^,[74].
Using a method similar to that of our previous report, cell cycle analysis was carried out using Leukemia HL-60 cell line, stained with the DNA fluorochrome PI, and analyzed by FACSCalibur flow cytometer. Leukemia HL-60 cell was seeded at a density of 2 × 10^5 cells/well and incubated for 24 h in six-well plates. Fetal bovine serum (10%) was added, and the cells were incubated at 37°C in an atmosphere of 5% CO2. The medium was replaced with 1% (v/v) dimethyl sulfoxide (DMSO), containing 10.0 μM of compound 9. […]
Afterward, […]
the samples were analyzed using a FACSCalibur flow cytometer. […]
(AA) to PGH2. […]

[30] = system: OVCAR-4; set-up: method as in https://dtp.cancer.gov/dtpstandard/dwindex/index.jsp; conditions: reference drugs, ref https://dtp.cancer.gov/dtpstandard/dwindex/index.jsp; cited from earlier work
[31] = system: MCF7; set-up: method as in https://dtp.cancer.gov/dtpstandard/dwindex/index.jsp; conditions: reference drugs, ref https://dtp.cancer.gov/dtpstandard/dwindex/index.jsp; cited from earlier work
[32] = system: A498; set-up: method as in https://dtp.cancer.gov/dtpstandard/dwindex/index.jsp; conditions: reference drugs, ref https://dtp.cancer.gov/dtpstandard/dwindex/index.jsp; cited from earlier work
[33] = system: PC-3; set-up: method as in https://dtp.cancer.gov/dtpstandard/dwindex/index.jsp; conditions: reference drugs, ref https://dtp.cancer.gov/dtpstandard/dwindex/index.jsp; cited from earlier work
[34] = system: CAKI-1; set-up: method as in https://dtp.cancer.gov/dtpstandard/dwindex/index.jsp; conditions: reference drugs, ref https://dtp.cancer.gov/dtpstandard/dwindex/index.jsp; cited from earlier work
[35] = system: SW-620; set-up: method as in https://dtp.cancer.gov/dtpstandard/dwindex/index.jsp; conditions: reference drugs, ref https://dtp.cancer.gov/dtpstandard/dwindex/index.jsp; cited from earlier work
[36] = five concentrations 0.01-100 µM

## COc1cc2ncnc(Nc3ccc(F)c(Cl)c3)c2cc1OCCCN1CCOCC1 [Gefitinib, gefitinib]
[1]
  GI50: 7.94 µM
[2]
  GI50: 3.98 µM
[3]
  GI50: 2.51 µM
[4]
  GI50: 2.51 µM
[5]
  GI50: 2.51 µM
[6]
  GI50: 1.26 µM
[7]
  GI50: 0.794 µM
[8]
  GI50: 7.94 µM
[9]
  GI50: 3.98 µM
[10]
  GI50: 3.16 µM
[11]
  GI50: 0.316 µM
[12]
  GI50: 2.1 µM
  TGI MG-MID (full panel mean-graph midpoint): 14.3 µM
[13]
  GI50: 3.16 µM
[14]
  GI50: 3.16 µM

## CS(=O)(=O)c1ccc(C(=O)NN=Cc2cccc3ccccc23)cc1 [Compound 6, 4-(Methylsulfonyl)-N'-(naphthalen-1-ylmethylene)benzohydrazide]
[15]
  inhibition at 10 µM: 10.3%
[16]
  inhibition at 10 µM: 14.7%
[17]
  inhibition at 10 µM: 20.2%
[18]
  inhibition at 10 µM: 55.1%
[19]
  inhibition at 10 µM: 12.6%
[20]
  inhibition at 10 µM: 12.4%
[21]
  inhibition at 10 µM: 50.5%
[22]
  inhibition at 10 µM: 15.5%
[23]
  inhibition at 10 µM: 32.2%
[24]
  inhibition at 10 µM: 63.8%
[25]
  inhibition at 10 µM: 50.2%
[26]
  inhibition at 10 µM: 32.8%
[27]
  inhibition at 10 µM: 82.9%
[28]
  inhibition at 10 µM: 14.3%
[29]
  %G0-G1: 48.31%
  %G2-M: 23.27%
  %Pre-G1: 12.57%
  %S: 28.42%

## CS(=O)(=O)c1ccc(C(=O)N/N=C/c2ccccc2O)cc1 [Compound 16]
[15]
  inhibition at 10 µM: 22.3%
[16]
  inhibition at 10 µM: 47.6%
[17]
  inhibition at 10 µM: 54.6%
[18]
  inhibition at 10 µM: 77.5%
[19]
  inhibition at 10 µM: 41.4%
[20]
  inhibition at 10 µM: 47%
[21]
  inhibition at 10 µM: 56.4%
[22]
  inhibition at 10 µM: 52.7%
[23]
  inhibition at 10 µM: 77.2%
[24]
  inhibition at 10 µM: 56.7%
[25]
  inhibition at 10 µM: 82%
[26]
  inhibition at 10 µM: 65.1%
[27]
  inhibition at 10 µM: 40.3%
[28]
  inhibition at 10 µM: 61.6%
[29]
  %G0-G1: 39.42%
  %G2-M: 38.09%
  %Pre-G1: 22.41%
  %S: 22.49%

## CCN(CC)c1ccc(/C=N/NC(=O)c2ccc(S(C)(=O)=O)cc2)c(O)c1 [Compound 20]
[15]; [36]
  GI50: 0.228 µM
[15]
  inhibition at 10 µM: 44.8%
[16]; [36]
  GI50: 0.39 µM
[16]
  inhibition at 10 µM: 70%
[17]; [36]
  GI50: 0.428 µM
[17]
  inhibition at 10 µM: 68%
[18]; [36]
  GI50: 0.253 µM
[18]
  inhibition at 10 µM: 91.2%
[19]; [36]
  GI50: 0.354 µM
[19]
  inhibition at 10 µM: 68.8%
[20]; [36]
  GI50: 0.346 µM
[20]
  inhibition at 10 µM: 69.3%
[21]; HT-29, five concentrations 0.01-100 µM
  GI50: 0.297 µM
[21]
  inhibition at 10 µM: 78.2%
[22]; [36]
  GI50: 0.301 µM
[22]
  inhibition at 10 µM: 60.4%
[23]; [36]
  GI50: 0.125 µM
[23]
  inhibition at 10 µM: 66.6%
[24]; [36]
  GI50: 0.387 µM
[24]
  inhibition at 10 µM: 67%
[25]; [36]
  GI50: 0.092 µM
[25]
  inhibition at 10 µM: 71.5%
[26]; [36]
  GI50: 0.104 µM
[26]
  inhibition at 10 µM: 79.6%
[27]; [36]
  GI50: 0.623 µM
[27]
  inhibition at 10 µM: 62.8%
[28]; [36]
  GI50: 0.0789 µM
[28]
  inhibition at 10 µM: 78.2%
[29]
  %G0-G1: 36.28%
  %G2-M: 34.29%
  %Pre-G1: 24.31%
  %S: 29.43%

## Cc1ccc(-c2cc(C(F)(F)F)nn2-c2ccc(S(N)(=O)=O)cc2)cc1 [Celecoxib, celecoxib]
[1]
  GI50: 15.8 µM
[2]
  GI50: 15.8 µM
[30]
  GI50: 12.6 µM
[3]
  GI50: 15.8 µM
[4]
  GI50: 10 µM
[31]
  GI50: 15.8 µM
[32]
  GI50: 15.8 µM
[5]
  GI50: 15.8 µM
[33]
  GI50: 12.6 µM
[34]
  GI50: 19.9 µM
[6]
  GI50: 15.8 µM
[7]
  GI50: 19.9 µM
[8]
  GI50: 15.8 µM
[9]
  GI50: 19.9 µM
[10]
  GI50: 15.8 µM
[12]
  GI50: 17.5 µM
  TGI MG-MID (full panel mean-graph midpoint): 34.0 µM
[12]; read-out: LC50 MG-MID (full panel mean-graph midpoint), reference drugs, ref https://dtp.cancer.gov/dtpstandard/dwindex/index.jsp
  CC50: 63.3 µM
[35]
  GI50: 15.8 µM
[13]
  GI50: 15.8 µM
[14]
  GI50: 39.8 µM
